Experimental data published in patent publication US9643993B2, “Crystalline polymorphic form of ulipristal acetate” (ASKA PHARMACEUTICAL CO., LTD., priority 2012, dated 2017).
Where two headings read alike, the source gives them in different places.

Experiments:
[1] = dog, in vivo, po, 25 mg/kg
Method: (§1) For each of ulipristal acetate samples obtained in Examples and Comparative Example, the absorption test was performed as follows. The ulipristal acetate was filled into a gelatin capsule shell (manufacturer: Qualicaps Co., Ltd., size: No. 00, lot: C0079A) to produce a capsule. The capsule was orally administered to 6 female dogs at a dose of 25 mg/kg (in terms of ulipristal acetate). The blood was collected 0.5, 1, 2, 4, 6, 24, and 48 hours after the oral administration. Then the sample was centrifuged to give a plasma. The concentration of the ulipristal acetate in the plasma was measured by a LC-MS/MS (liquid chromatography-tandem mass spectrometry) method, and the elimination half-life (T112), the time to the maximum plasma concentration (Tmax), the maximum plasma concentration (Cmax), the area under the plasma concentration-time curve (AUC), and the mean residence time (MRT) were calculated. The capsule was administered to each female dog twice at dosing intervals (washout period) of one week by crossover method.

Absorption test in dog = conditions: female dogs, oral capsule, 25 mg/kg
Method: as §1

[2] = Solubility in ethanol/water (10/90) mixed solvent at 37° C.; conditions: ethanol/water (volume ratio)=10/90, 37° C., stirred 5 minutes, HPLC
Method: [Solubility] For each of ulipristal acetate samples obtained in Examples and Comparative Example, the solubility was determined as follows. The ulipristal acetate (40 mg) was added to 40 mL of a mixed solvent containing ethanol and water [ethanol/water (volume ratio)=10/90] having a temperature of 37° C. to prepare a test sample. The test sample was stirred by a magnetic stirrer for 5 minutes. Then a portion of the suspension was separated. The solid of the separated portion was filtered out, and the ulipristal acetate content of the residue was quantitatively determined using a high-performance liquid chromatography (column: ODS, column temperature: 40° C., eluate: 0.1% trifluoroacetic acid aqueous solution/acetonitrile mixture (volume ratio 3:2), rate of flow: 1.0 mL/minute, detection: UV 302 nm), and the solubility was calculated.

Structure (SMILES)	AUC0-inf [1]	AUC0-t [1]	Cmax [1]	MRTinf [1]	MRTlast [1]	T1/2 [1]	Tmax [1]	AUC0-inf (Absorption test in dog; plasma, LC-MS/MS)	AUC0-t (Absorption test in dog; plasma, LC-MS/MS)	Cmax (Absorption test in dog; plasma, LC-MS/MS)	MRTinf (Absorption test in dog; plasma, LC-MS/MS)	MRTlast (Absorption test in dog; plasma, LC-MS/MS)	T1/2 (Absorption test in dog; plasma, LC-MS/MS)	Tmax (Absorption test in dog; plasma, LC-MS/MS)	Pharmacokinetics compared with Comparative Example (in words) (Absorption test in dog; summary of Table 5)	Solubility [2]
CC(=O)O[C@]1(C(C)=O)CCC2C3CCC4=CC(=O)CCC4=C3[C@@H](c3ccc(N(C)C)cc3)C[C@@]21C (stereo partly drawn) [Comparative Example, 17alpha-acetoxy-11beta-(4-N,N-dimethylaminophenyl)-19-norpregna-4,9-diene-3,20-dione]	9390.7 ng·h/mL	8447.4 ng·h/mL	1490.7 ng/mL	16.6 h	11.8 h	14.9 h	1.8 h									
CC(=O)O[C@]1(C(C)=O)CCC2C3CCC4=CC(=O)CCC4=C3[C@@H](c3ccc(N(C)C)cc3)C[C@@]21C (stereo partly drawn) [Example 1, 17alpha-acetoxy-11beta-(4-N,N-dimethylaminophenyl)-19-norpregna-4,9-diene-3,20-dione]								18078.4 ng·h/mL	12194.3 ng·h/mL	2200.2 ng/mL	37.7 h	11.7 h	37.3 h	1.2 h	excellent pharmacokinetics	11.2 µg/mL
